Data on 19 compounds can be found in US20210047291A1, “PESTICIDALLY ACTIVE HETEROCYCLIC DERIVATIVES WITH SULFUR CONTAINING SUBSTITUENTS” (SYNGENTA PARTICIPATIONS AG, priority 2018, published 2021).

Where only a bound is given, the exact number is not on record here.

Common to all, as to format: in vivo
Data set [1] has as its system Myzus persicae (Green peach aphid). Description: Example B5: Myzus persicae feeding/contact activity, sunflower leaf discs. To be noted: foliar; for mortality at 200 ppm: Myzus persicae, 144 h, application rate of 200 ppm, mixed ages, 6 days after infestation, read-out: mortality; for mortality at 12.5 ppm: Concentration 12.5 ppm, Myzus persicae (feeding/contact, Example B5), read-out: Mortality (%). The method, then:
Sunflower leaf discs were placed onto agar in a 24-well microtiter plate and sprayed with aqueous test solutions prepared from 10,000 ppm DMSO stock solutions. After drying, the leaf discs were infested with an aphid population of mixed ages. The samples were assessed for mortality 6 days after infestation.

Data set [2] relates to Euschistus heros (Neotropical Brown Stink Bug). Description: Example B3: Euschistus heros, soybean leaves, N2 nymphs. To be noted: for percent effect (mortality or growth inhibition) at 200 ppm: Euschistus heros, 120 h, application rate of 200 ppm, N2 nymphs, 5 days after infestation, read-out: effect in at least one of the two categories (mortality or growth inhibition); for mortality at 50 ppm: Concentration 50 ppm, Euschistus heros (Example B3), read-out: Mortality (%). On the procedure: Soybean leaves on agar in 24-well microtiter plates were sprayed with aqueous test solutions prepared from 10,000 ppm DMSO stock solutions. After drying the leaves were infested with N2 nymphs. The samples were assessed for mortality and growth inhibition in comparison to untreated samples 5 days after infestation.

The test system of the next data set is Melodoigyne incognita. The experiment in a line: Example B14: Melodoigyne incognita juvenile mobility, in vitro profiling in 96 well plate. To be noted: 200 ppm; after 24 h; second stage juveniles; read-out: control (juvenile mobility). On the procedure: Test solutions are prepared from 10,000 ppm DMSO stock solutions with a TECAN robot to achieve 20 μL of 1000, 200, 100, 50, 25 and 12.5 ppm. For each concentration three replicates are produced. Per well, 80 μL nematode solution is added containing 100 to 150 freshly harvested second stage juveniles of Melodoigyne incognita. The plates are covered and stored at room temperature in the dark and incubated for 24 h. Mobility of the exposed juveniles in a treated well is measured using an imaging tool and compared to an average of 12 untreated replicates.

The test system of data set [3] is Myzus persicae (Green peach aphid). Description: Example B6: Myzus persicae systemic activity, pea seedlings. To be noted: for mortality at 24 ppm: Myzus persicae, 144 h, test rate of 24 ppm, mixed ages, 6 days after placing seedlings into test solutions, read-out: mortality; for mortality at 1.5 ppm: Concentration 1.5 ppm, Myzus persicae (systemic, Example B6), read-out: Mortality (%). On the procedure:
Roots of pea seedlings infested with an aphid population of mixed ages were placed directly into aqueous test solutions prepared from 10,000 DMSO stock solutions. The samples were assessed for mortality 6 days after placing seedlings into test solutions.

The subject of data set [4] is Diabrotica Balteata (Corn Root Worm). The experiment in a line: Example B2: Diabrotica balteata, maize sprouts, L2 larvae. Particulars: for percent effect (mortality or growth inhibition) at 200 ppm: Diabrotica balteata, 96 h, application rate of 200 ppm, L2 larvae, 4 days after infestation, read-out: effect in at least one of the two categories (mortality or growth inhibition). On the procedure: Maize sprouts placed onto an agar layer in 24-well microtiter plates were treated with aqueous test solutions prepared from 10,000 ppm DMSO stock solutions by spraying. After drying, the plates were infested with L2 larvae (6 to 10 per well). The samples were assessed for mortality and growth inhibition in comparison to untreated samples 4 days after infestation.

In general, mortality refers to the percentage killed. Take `CCS(=O)(=O)c1cc(N(C)C(=O)CCSC)cnc1-c1nc2cc(C(F)(F)F)ncc2n1C` [P41, N-[5-ethylsulfonyl-6-[3-methyl-6-(trifluoromethyl)imidazo[4,5-c]pyridin-2-yl]-3-pyridyl]-N-methyl-3-methylsulfanyl-propanamide]: the mortality at 200 ppm in data set [1] was not below 80%. For the same compound, the percent effect (mortality or growth inhibition) at 200 ppm in data set [2] is not below 80%. Besides, the pest or weed control at 200 ppm in the data set on Melodoigyne incognita was not below 80%.
For `CCC(=O)N(CC(F)(F)F)c1cnc(-c2nc3cc(C(F)(F)F)ncc3n2C)c(S(=O)(=O)CC)c1` [P32, N-[5-ethylsulfonyl-6-[3-methyl-6-(trifluoromethyl)imidazo[4,5-c]pyridin-2-yl]-3-pyridyl]-N-(2,2,2-trifluoroethyl)propanamide], the mortality at 200 ppm in data set [1] was not below 80%. For the same compound, the percent effect (mortality or growth inhibition) at 200 ppm in data set [2] and in data set [4] was not below 80% throughout. Besides, the mortality at 24 ppm in data set [3] is not below 80%.
`CCS(=O)(=O)c1cc(NC(=O)C(C)(C)C)cnc1-c1nc2cc(C(F)(F)F)ncc2n1C` [P39, N-[5-ethylsulfonyl-6-[3-methyl-6-(trifluoromethyl)imidazo[4,5-c]pyridin-2-yl]-3-pyridyl]-2,2-dimethyl-propanamide]: the mortality at 200 ppm in data set [1] is not below 80%. Also, the percent effect (mortality or growth inhibition) at 200 ppm in data set [2] is not below 80%. In addition, in the data set with Melodoigyne incognita, the pest or weed control at 200 ppm is not below 80%. The mortality at 24 ppm in data set [3] was not below 80%.
Take `CCS(=O)(=O)c1cc(NC(=O)C(C)(C)O)cnc1-c1nc2cc(C(F)(F)F)ncc2n1C` [P8, N-[5-ethylsulfonyl-6-[3-methyl-6-(trifluoromethyl)imidazo[4,5-c]pyridin-2-yl]-3-pyridyl]-2-hydroxy-2-methyl-propanamide]: the mortality at 200 ppm in data set [1] was not below 80%. In addition, the percent effect (mortality or growth inhibition) at 200 ppm in data set [2] was not below 80%. Further, the mortality at 24 ppm in data set [3] was not below 80%.
For `CCS(=O)(=O)c1cc(N2CCNC2=O)cnc1-c1nc2cc(C(F)(F)F)ncc2n1C` [P36, 1-[5-ethylsulfonyl-6-[3-methyl-6-(trifluoromethyl)imidazo[4,5-c]pyridin-2-yl]-3-pyridyl]imidazolidin-2-one], in data set [1], the mortality at 200 ppm was not below 80% and the mortality at 12.5 ppm stood at 90%. In addition, in data set [2], the mortality at 50 ppm is 100% and the percent effect (mortality or growth inhibition) at 200 ppm was not below 80%. Also, the pest or weed control at 200 ppm in the data set on Melodoigyne incognita was not below 80%. In data set [3], the mortality at 1.5 ppm came out at 100% and the mortality at 24 ppm was not below 80%.
With `CCS(=O)(=O)c1cc(N2CCOCC2=O)cnc1-c1nc2cc(C(F)(F)F)ncc2n1C` [P15, 4-[5-ethylsulfonyl-6-[3-methyl-6-(trifluoromethyl)imidazo[4,5-c]pyridin-2-yl]-3-pyridyl]morpholin-3-one], the mortality at 200 ppm in data set [1] is not below 80%. Also, in data set [2], the percent effect (mortality or growth inhibition) at 200 ppm is not below 80%. Further, the pest or weed control at 200 ppm in the data set on Melodoigyne incognita was not below 80%. The mortality at 24 ppm in data set [3] is not below 80%.
As for `CCSc1cc(N(C(C)=O)C(C)C)cnc1-c1nc2cc(C(F)(F)F)ncc2n1C` [P47, N-[5-ethylsulfanyl-6-[3-methyl-6-(trifluoromethyl)imidazo[4,5-c]pyridin-2-yl]-3-pyridyl]-N-isopropyl-acetamide], the percent effect (mortality or growth inhibition) at 200 ppm in data set [2] is not below 80%.
In the case of `CCS(=O)(=O)c1cc(N(C)C(=O)CC(F)(F)F)cnc1-c1nc2cc(C(F)(F)F)ncc2n1C` [P28, N-[5-ethylsulfonyl-6-[3-methyl-6-(trifluoromethyl)imidazo[4,5-c]pyridin-2-yl]-3-pyridyl]-3,3,3-trifluoro-N-methyl-propanamide], in data set [1], the mortality at 200 ppm was not below 80%. In addition, the percent effect (mortality or growth inhibition) at 200 ppm in data set [2] and in data set [4] was not below 80% each time. The mortality at 24 ppm in data set [3] is not below 80%.
Take `CCS(=O)(=O)c1cc(N2CCN(C)C2=O)cnc1-c1nc2cc(C(F)(F)F)ncc2n1C` [P37, 1-[5-ethylsulfonyl-6-[3-methyl-6-(trifluoromethyl)imidazo[4,5-c]pyridin-2-yl]-3-pyridyl]-3-methyl-imidazolidin-2-one]: in data set [1], the mortality at 200 ppm was not below 80% and the mortality at 12.5 ppm amounted to 90%. Also, in data set [2], the mortality at 50 ppm came out at 100% and the percent effect (mortality or growth inhibition) at 200 ppm is not below 80%. Besides, the pest or weed control at 200 ppm in the data set on Melodoigyne incognita is not below 80%. For the same compound, in data set [3], the mortality at 1.5 ppm came to 100% and the mortality at 24 ppm was not below 80%.
On to `CCS(=O)(=O)c1cc(N(C)C(C)=O)ccc1-c1nc2cc(C(F)(F)F)ncc2n1C` [P16, N-[3-ethylsulfonyl-4-[3-methyl-6-(trifluoromethyl)imidazo[4,5-c]pyridin-2-yl]phenyl]-N-methyl-acetamide], for which the mortality at 200 ppm in data set [1] was not below 80%. Besides, the percent effect (mortality or growth inhibition) at 200 ppm in data set [2] is not below 80%. Also, in data set [3], the mortality at 24 ppm is not below 80%.
With `CCS(=O)(=O)c1cc(N(C)C(=O)CCS(C)(=O)=O)cnc1-c1nc2cc(C(F)(F)F)ncc2n1C` [P31, N-[5-ethylsulfonyl-6-[3-methyl-6-(trifluoromethyl)imidazo[4,5-c]pyridin-2-yl]-3-pyridyl]-N-methyl-3-methylsulfonyl-propanamide], the mortality at 200 ppm in data set [1] was not below 80%. The percent effect (mortality or growth inhibition) at 200 ppm in data set [2] is not below 80%.
Take `CCS(=O)(=O)c1cc(NC(=O)C2CC2)cnc1-c1nc2cc(C(F)(F)F)cnc2n1C` [reference compound]: the mortality at 1.5 ppm in data set [3] came to 0%.
Consider `CCS(=O)(=O)c1cc(-n2ccccc2=O)cnc1-c1nc2cc(C(F)(F)F)ncc2n1C` [reference compound], for which, in data set [1], the mortality at 12.5 ppm turned out to be 0%. The mortality at 50 ppm in data set [2] turned out to be 50%. Moreover, in data set [3], the mortality at 1.5 ppm turned out to be 0%.
Take `CCSc1cc(N(C)C(C)=O)cnc1-c1nc2cc(C(F)(F)F)ncc2n1C` [P33, N-[5-ethylsulfanyl-6-[3-methyl-6-(trifluoromethyl)imidazo[4,5-c]pyridin-2-yl]-3-pyridyl]-N-methyl-acetamide]: the mortality at 200 ppm in data set [1] is not below 80%. The percent effect (mortality or growth inhibition) at 200 ppm in data set [2] was not below 80%.
With `CCN(C(=O)CCl)c1cnc(-c2nc3cc(C(F)(F)F)ncc3n2C)c(S(=O)(=O)CC)c1` [P20, 2-chloro-N-ethyl-N-[5-ethylsulfonyl-6-[3-methyl-6-(trifluoromethyl)imidazo[4,5-c]pyridin-2-yl]-3-pyridyl]acetamide], in data set [1], the mortality at 200 ppm was not below 80%. Also, the percent effect (mortality or growth inhibition) at 200 ppm in data set [2] and in data set [4] was not below 80% throughout. In addition, the pest or weed control at 200 ppm in the data set with Melodoigyne incognita is not below 80%. In data set [3], the mortality at 24 ppm is not below 80%.
For `CCS(=O)(=O)c1cc(NC(=O)C(F)(F)F)cnc1-c1nc2cc(C(F)(F)F)ncc2n1C` [P44, N-[5-ethylsulfonyl-6-[3-methyl-6-(trifluoromethyl)imidazo[4,5-c]pyridin-2-yl]-3-pyridyl]-2,2,2-trifluoro-acetamide], the mortality at 200 ppm in data set [1] was not below 80%. Besides, the percent effect (mortality or growth inhibition) at 200 ppm in data set [2] and in data set [4] was not below 80% each time. For the same compound, the pest or weed control at 200 ppm in the data set on Melodoigyne incognita is not below 80%.
Regarding `CCS(=O)(=O)c1cc(NC(C)=O)cnc1-c1nc2cc(C(F)(F)F)ncc2n1C` [drawing 155, reference compound], the “Mortality (%)” value in data set [4] (Concentration 200 ppm, Diabrotica balteata (Example B2)) was determined as 0%.
For `CCS(=O)(=O)c1ccc(N2CCN(C)C2=O)nc1-c1nc2cc(C(F)(F)F)ncc2n1C` [reference compound], in data set [1], the mortality at 12.5 ppm came to 80%. The mortality at 50 ppm in data set [2] was determined as 50%. In data set [3], the mortality at 1.5 ppm amounted to 0%.
For `CCS(=O)(=O)c1cc(N2CCS(=O)(=O)CC2=O)cnc1-c1nc2cc(C(F)(F)F)ncc2n1C` [P18, 4-[5-ethylsulfonyl-6-[3-methyl-6-(trifluoromethyl)imidazo[4,5-c]pyridin-2-yl]-3-pyridyl]-1,1-dioxo-1,4-thiazinan-3-one], in data set [2], the percent effect (mortality or growth inhibition) at 200 ppm was not below 80%.
